Laboratory results taken from publication PMC10577221, “A cyclic peptide-based PROTAC induces intracellular degradation of palmitoyltransferase and potently decreases PD-L1 expression in human cervical cancer cells” (Frontiers in Immunology, 2023).

Test system: C33A cells
Assay: Colony formation assay
Format: cell-based, human
Conditions: 14 days culture, compared to blank control
Protocol: Cells treated with drugs were separately seeded in a 6-well plate and cultured continuously for 14 days. During this period, the culture medium was changed every 2-3 days. Once visible cell colonies formed, the culture medium was removed, and the cells were fixed with 4% paraformaldehyde for 30 minutes, followed by staining with 0.1% crystal violet for 30 minutes. Finally, the colonies were counted and photographed using an optical microscope.

For `N.N.[Cl][Pt][Cl]` [cisplatin], the “number of C33A colonies, single agent” value was “decreased”.
